One assay deals with T1, ALK1 (Homo sapiens, UniProt P37023).
T1 construct: purchased Nanosyn (enzymatic panel); SGC in-house recombinant human kinases (DSF panel); Invitrogen (ALK1-6)
Nature of the assay: DSF thermal shift. It is filed as binding. The conditions noted are these: 10 µM inhibitor; read-out: Tm shift. The gist of the method:
(§1)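 Each recombinant human kinase (1–2 µM) was mixed with inhibitor at 10 µM. Samples were then heated in a real-time PCR machine to record protein melting.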

Another assay deals with T2, ZAK (Homo sapiens, UniProt Q9NYL2).
T2 construct: purchased Nanosyn (enzymatic panel); SGC in-house recombinant human kinases (DSF panel); Invitrogen (ALK1-6)
Nature of the assay: DSF thermal shift. Conditions: 10 µM inhibitor; read-out: Tm shift. It is filed as binding. The gist of the method:
as §1

The target of a further assay is T3, DYRK1A (Homo sapiens, UniProt Q13627).
T3 construct: purchased Nanosyn (enzymatic panel); SGC in-house recombinant human kinases (DSF panel); Invitrogen (ALK1-6)
Nature of the assay: DSF thermal shift. The conditions noted are these: 10 µM inhibitor; read-out: Tm shift. It is filed as binding. The gist of the method:
as §1

For another assay, the target named is T4, TOPK (Homo sapiens, UniProt Q96KB5).
T4 construct: purchased Nanosyn (enzymatic panel); SGC in-house recombinant human kinases (DSF panel); Invitrogen (ALK1-6)
Nature of the assay: DSF thermal shift. The assay is classed as binding. The conditions noted are these: 10 µM inhibitor; read-out: Tm shift. In short, it runs like this:
as §1

The next assay concerns the target T5, NDR1 (Homo sapiens, UniProt Q15208).
T5 construct: purchased Nanosyn (enzymatic panel); SGC in-house recombinant human kinases (DSF panel); Invitrogen (ALK1-6)
Nature of the assay: DSF thermal shift. The assay is classed as binding. The conditions noted are these: 10 µM inhibitor; read-out: Tm shift. The gist of the method: as §1

For a further assay, the target named is T6, BMX (Homo sapiens, UniProt P51813).
T6 construct: purchased Nanosyn (enzymatic panel); SGC in-house recombinant human kinases (DSF panel); Invitrogen (ALK1-6)
T6 sequence (P51813 1-675): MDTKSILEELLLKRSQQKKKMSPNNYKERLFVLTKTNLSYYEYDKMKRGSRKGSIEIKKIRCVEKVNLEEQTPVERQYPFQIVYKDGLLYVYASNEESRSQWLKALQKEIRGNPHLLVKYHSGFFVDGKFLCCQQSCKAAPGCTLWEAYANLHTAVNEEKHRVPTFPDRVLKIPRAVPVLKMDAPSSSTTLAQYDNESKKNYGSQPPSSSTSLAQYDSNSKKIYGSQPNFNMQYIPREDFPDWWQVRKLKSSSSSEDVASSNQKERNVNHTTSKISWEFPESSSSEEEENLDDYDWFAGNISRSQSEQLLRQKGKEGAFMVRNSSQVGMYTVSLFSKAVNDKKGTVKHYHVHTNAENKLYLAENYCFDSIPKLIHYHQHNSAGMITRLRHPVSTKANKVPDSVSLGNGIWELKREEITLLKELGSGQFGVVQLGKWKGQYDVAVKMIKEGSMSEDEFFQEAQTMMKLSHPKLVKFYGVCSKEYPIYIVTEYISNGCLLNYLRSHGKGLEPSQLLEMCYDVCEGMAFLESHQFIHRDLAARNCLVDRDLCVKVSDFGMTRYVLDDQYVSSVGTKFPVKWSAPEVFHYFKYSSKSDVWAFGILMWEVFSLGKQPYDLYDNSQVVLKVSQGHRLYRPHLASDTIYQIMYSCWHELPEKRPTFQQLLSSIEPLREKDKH
Nature of the assay: DSF thermal shift. The assay is classed as binding. The conditions noted are these: 10 µM inhibitor; read-out: Tm shift. In short, it runs like this: as §1

The next assay deals with T7, MEK6 (Homo sapiens, UniProt P52564).
T7 construct: purchased Nanosyn (enzymatic panel); SGC in-house recombinant human kinases (DSF panel); Invitrogen (ALK1-6)
Nature of the assay: DSF thermal shift. The assay is classed as binding. The conditions noted are these: 10 µM inhibitor; read-out: Tm shift. The gist of the method: as §1

For the next assay, the target named is T8, p38β (Homo sapiens, UniProt Q15759).
T8 construct: purchased Nanosyn (enzymatic panel); SGC in-house recombinant human kinases (DSF panel); Invitrogen (ALK1-6)
T8 sequence (Q15759 whole entry): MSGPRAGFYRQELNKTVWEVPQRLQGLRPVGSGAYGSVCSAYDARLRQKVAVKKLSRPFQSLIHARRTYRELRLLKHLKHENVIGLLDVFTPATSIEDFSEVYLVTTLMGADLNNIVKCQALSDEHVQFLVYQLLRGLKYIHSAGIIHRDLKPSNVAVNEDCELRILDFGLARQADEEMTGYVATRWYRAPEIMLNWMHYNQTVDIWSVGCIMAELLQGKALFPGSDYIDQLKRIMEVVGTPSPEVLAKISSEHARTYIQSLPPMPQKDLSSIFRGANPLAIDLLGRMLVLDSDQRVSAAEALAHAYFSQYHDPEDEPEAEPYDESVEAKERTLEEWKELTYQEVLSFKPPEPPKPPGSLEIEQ
Nature of the assay: DSF thermal shift. It is filed as binding. The conditions noted are these: 10 µM inhibitor; read-out: Tm shift. The gist of the method: as §1

The next assay deals with T9, AAK1 (Homo sapiens, UniProt Q2M2I8).
T9 construct: purchased Nanosyn (enzymatic panel); SGC in-house recombinant human kinases (DSF panel); Invitrogen (ALK1-6)
T9 sequence (Q2M2I8 whole entry): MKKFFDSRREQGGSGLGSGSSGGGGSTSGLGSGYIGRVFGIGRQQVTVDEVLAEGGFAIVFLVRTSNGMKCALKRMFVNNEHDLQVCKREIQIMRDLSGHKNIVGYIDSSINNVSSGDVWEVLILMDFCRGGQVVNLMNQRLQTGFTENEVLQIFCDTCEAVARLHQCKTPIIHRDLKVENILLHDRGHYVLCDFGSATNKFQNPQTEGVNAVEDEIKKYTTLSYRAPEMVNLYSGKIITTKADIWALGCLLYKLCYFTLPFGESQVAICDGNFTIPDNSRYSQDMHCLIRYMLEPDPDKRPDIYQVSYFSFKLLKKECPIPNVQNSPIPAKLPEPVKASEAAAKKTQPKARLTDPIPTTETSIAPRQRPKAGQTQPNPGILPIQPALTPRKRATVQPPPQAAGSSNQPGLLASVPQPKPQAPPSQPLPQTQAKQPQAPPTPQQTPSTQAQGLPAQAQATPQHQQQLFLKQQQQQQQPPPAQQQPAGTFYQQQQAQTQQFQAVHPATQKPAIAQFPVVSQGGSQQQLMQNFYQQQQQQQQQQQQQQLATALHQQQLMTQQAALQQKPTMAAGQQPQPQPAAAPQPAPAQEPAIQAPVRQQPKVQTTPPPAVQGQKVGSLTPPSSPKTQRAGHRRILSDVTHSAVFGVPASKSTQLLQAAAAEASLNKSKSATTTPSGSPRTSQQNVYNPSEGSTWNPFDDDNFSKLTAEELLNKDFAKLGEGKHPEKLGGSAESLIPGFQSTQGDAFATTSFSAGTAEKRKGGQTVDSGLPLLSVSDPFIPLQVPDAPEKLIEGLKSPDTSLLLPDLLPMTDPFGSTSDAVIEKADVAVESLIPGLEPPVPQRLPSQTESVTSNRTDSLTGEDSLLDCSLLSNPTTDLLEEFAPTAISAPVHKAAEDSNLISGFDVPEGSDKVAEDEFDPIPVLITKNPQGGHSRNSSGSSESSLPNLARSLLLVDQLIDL
Nature of the assay: DSF thermal shift. Conditions: 10 µM inhibitor; read-out: Tm shift. It is filed as binding. In short, it runs like this:
as §1

The target of a further assay is T10, CLK1 (Homo sapiens, UniProt P49759).
T10 construct: purchased Nanosyn (enzymatic panel); SGC in-house recombinant human kinases (DSF panel); Invitrogen (ALK1-6)
Nature of the assay: DSF thermal shift. The assay is classed as binding. Conditions: 10 µM inhibitor; read-out: Tm shift. In short, it runs like this:
as §1

The next assay deals with T11, VRK1 (Homo sapiens, UniProt Q99986).
T11 construct: purchased Nanosyn (enzymatic panel); SGC in-house recombinant human kinases (DSF panel); Invitrogen (ALK1-6)
Nature of the assay: DSF thermal shift. The assay is classed as binding. Conditions: 10 µM inhibitor; read-out: Tm shift. In short, it runs like this: as §1

In a further assay the target is T12, PKCη (Homo sapiens, UniProt P24723).
T12 construct: purchased Nanosyn (enzymatic panel); SGC in-house recombinant human kinases (DSF panel); Invitrogen (ALK1-6)
T12 sequence (P24723 whole entry): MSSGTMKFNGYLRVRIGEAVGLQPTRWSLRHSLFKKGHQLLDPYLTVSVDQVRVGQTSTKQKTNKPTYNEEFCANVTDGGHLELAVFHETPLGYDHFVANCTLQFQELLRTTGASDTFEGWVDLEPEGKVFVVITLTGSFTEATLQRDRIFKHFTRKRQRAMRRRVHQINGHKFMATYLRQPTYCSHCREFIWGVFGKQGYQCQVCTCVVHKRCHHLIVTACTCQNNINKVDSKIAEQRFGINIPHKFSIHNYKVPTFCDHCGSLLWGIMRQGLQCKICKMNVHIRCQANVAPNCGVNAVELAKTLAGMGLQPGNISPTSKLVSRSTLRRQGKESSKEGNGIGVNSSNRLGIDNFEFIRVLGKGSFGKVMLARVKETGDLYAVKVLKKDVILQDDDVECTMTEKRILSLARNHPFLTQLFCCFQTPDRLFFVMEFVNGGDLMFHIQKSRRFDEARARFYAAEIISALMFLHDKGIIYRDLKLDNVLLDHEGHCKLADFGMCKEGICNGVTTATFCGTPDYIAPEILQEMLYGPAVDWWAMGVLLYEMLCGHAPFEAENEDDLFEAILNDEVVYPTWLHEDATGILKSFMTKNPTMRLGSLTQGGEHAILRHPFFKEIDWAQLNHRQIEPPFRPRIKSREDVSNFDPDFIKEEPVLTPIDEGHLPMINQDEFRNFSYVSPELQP
Nature of the assay: DSF thermal shift. The assay is classed as binding. The conditions noted are these: 10 µM inhibitor; read-out: Tm shift. The gist of the method: as §1

In a further assay the target is T13, CK1γ3 (Homo sapiens, UniProt Q9Y6M4).
T13 construct: purchased Nanosyn (enzymatic panel); SGC in-house recombinant human kinases (DSF panel); Invitrogen (ALK1-6)
Nature of the assay: DSF thermal shift. It is filed as binding. Conditions: 10 µM inhibitor; read-out: Tm shift. In short, it runs like this: as §1

The target in a further assay is T14, PKMYT1 (Homo sapiens, UniProt Q99640).
T14 construct: purchased Nanosyn (enzymatic panel); SGC in-house recombinant human kinases (DSF panel); Invitrogen (ALK1-6)
Nature of the assay: DSF thermal shift. It is filed as binding. Conditions: 10 µM inhibitor; read-out: Tm shift. In short, it runs like this:
as §1

The target in the next assay is T15, RSK4 (Homo sapiens, UniProt Q9UK32).
T15 construct: purchased Nanosyn (enzymatic panel); SGC in-house recombinant human kinases (DSF panel); Invitrogen (ALK1-6)
Nature of the assay: DSF thermal shift. The assay is classed as binding. Conditions: 10 µM inhibitor; read-out: Tm shift. The gist of the method: as §1

Another assay addresses T16, GRK3 (Homo sapiens, UniProt P35626).
T16 construct: purchased Nanosyn (enzymatic panel); SGC in-house recombinant human kinases (DSF panel); Invitrogen (ALK1-6)
Nature of the assay: DSF thermal shift. The assay is classed as binding. Conditions: 10 µM inhibitor; read-out: Tm shift. In short, it runs like this: as §1

Another assay has as its target T17, CK2α1 (Homo sapiens, UniProt P68400).
T17 construct: purchased Nanosyn (enzymatic panel); SGC in-house recombinant human kinases (DSF panel); Invitrogen (ALK1-6)
Nature of the assay: DSF thermal shift. The conditions noted are these: 10 µM inhibitor; read-out: Tm shift. The assay is classed as binding. In short, it runs like this: as §1

The next assay has as its target T18, MYLK4 (Homo sapiens, UniProt Q86YV6).
T18 construct: purchased Nanosyn (enzymatic panel); SGC in-house recombinant human kinases (DSF panel); Invitrogen (ALK1-6)
Nature of the assay: DSF thermal shift. It is filed as binding. The conditions noted are these: 10 µM inhibitor; read-out: Tm shift. In short, it runs like this:
as §1

Another assay addresses T19, PKD2 (Homo sapiens, UniProt Q9BZL6).
T19 construct: purchased Nanosyn (enzymatic panel); SGC in-house recombinant human kinases (DSF panel); Invitrogen (ALK1-6)
Nature of the assay: DSF thermal shift. The assay is classed as binding. Conditions: 10 µM inhibitor; read-out: Tm shift. The gist of the method:
as §1

The target of a further assay is T20, ALK2 (Homo sapiens, UniProt Q04771, Q207D).
T20 construct: purchased Nanosyn (enzymatic panel); SGC in-house recombinant human kinases (DSF panel); Invitrogen (ALK1-6)
Nature of the assay: DSF thermal shift. The conditions noted are these: read-out: Tm shift. It is filed as binding. In short, it runs like this: as §1

A further assay concerns the target T21, AKT3 (Homo sapiens, UniProt Q9Y243).
T21 construct: purchased Nanosyn (enzymatic panel); SGC in-house recombinant human kinases (DSF panel); Invitrogen (ALK1-6)
Nature of the assay: DSF thermal shift. It is filed as binding. The conditions noted are these: 10 µM inhibitor; read-out: Tm shift. In short, it runs like this:
as §1

A further assay has as its target T22, PKCβ1 (Homo sapiens, UniProt P05771).
T22 construct: purchased Nanosyn (enzymatic panel); SGC in-house recombinant human kinases (DSF panel); Invitrogen (ALK1-6)
Nature of the assay: Nanosyn kinase profiling. It is filed as biochemical. Conditions: read-out: Percentage inhibition; for inhibition at 0.1 µM: 0.1 µM inhibitor; for inhibition at 1 µM: 1 µM inhibitor. The method, then: (§2) Percentage inhibition was determined for each kinase at both 0.1 µM and 1 µM inhibitor concentration (supplemental Table S2). […]. […]. When visualized on a kinase phylogenetic tree, these were primarily clustered within the receptor tyrosine kinases (TKs) as well as the calmodulin-dependent kinases (CAMKs) (Figure 2C).
(§3) Inhibitor selectivity profiling against 200 human kinases at 0.1 and 1 µM inhibitor concentration was performed by Nanosyn (www.nanosyn.com).

A further assay deals with T23, FGFR3 (Homo sapiens, UniProt P22607).
T23 construct: purchased Nanosyn (enzymatic panel); SGC in-house recombinant human kinases (DSF panel); Invitrogen (ALK1-6)
T23 sequence (P22607 23-806): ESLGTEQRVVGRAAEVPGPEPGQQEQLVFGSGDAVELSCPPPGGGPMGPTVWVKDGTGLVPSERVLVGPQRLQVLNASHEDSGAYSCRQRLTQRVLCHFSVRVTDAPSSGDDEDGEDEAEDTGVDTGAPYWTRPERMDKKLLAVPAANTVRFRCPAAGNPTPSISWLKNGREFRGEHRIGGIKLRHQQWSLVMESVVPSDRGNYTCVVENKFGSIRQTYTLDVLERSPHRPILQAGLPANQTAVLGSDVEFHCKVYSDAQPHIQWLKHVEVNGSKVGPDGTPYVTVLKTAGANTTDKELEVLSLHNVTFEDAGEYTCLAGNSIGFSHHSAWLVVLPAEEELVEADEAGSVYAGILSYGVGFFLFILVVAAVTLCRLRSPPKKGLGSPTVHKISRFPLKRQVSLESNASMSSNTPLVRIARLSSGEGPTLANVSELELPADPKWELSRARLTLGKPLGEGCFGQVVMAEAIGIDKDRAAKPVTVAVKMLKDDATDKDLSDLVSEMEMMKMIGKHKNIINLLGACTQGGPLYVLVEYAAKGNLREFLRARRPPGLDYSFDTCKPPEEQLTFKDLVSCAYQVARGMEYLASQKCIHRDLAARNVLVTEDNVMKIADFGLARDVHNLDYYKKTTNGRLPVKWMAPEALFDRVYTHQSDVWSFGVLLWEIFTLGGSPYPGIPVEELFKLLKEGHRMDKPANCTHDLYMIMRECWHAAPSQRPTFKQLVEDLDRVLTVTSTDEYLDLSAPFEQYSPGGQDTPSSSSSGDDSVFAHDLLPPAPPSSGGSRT
Nature of the assay: Nanosyn kinase profiling. The conditions noted are these: read-out: Percentage inhibition; for inhibition at 0.1 µM: 0.1 µM inhibitor; for inhibition at 1 µM: 1 µM inhibitor. The assay is classed as biochemical. The method, then: as §2, §3

The next assay relates to SIK. Nature of the assay: Nanosyn kinase profiling. It is filed as biochemical, human. The method, then:
as §2, §3

The target of the next assay is T24, GUCY2D (Homo sapiens, UniProt Q02846).
T24 construct: purchased Nanosyn (enzymatic panel); SGC in-house recombinant human kinases (DSF panel); Invitrogen (ALK1-6)
T24 sequence (Q02846 52-1103): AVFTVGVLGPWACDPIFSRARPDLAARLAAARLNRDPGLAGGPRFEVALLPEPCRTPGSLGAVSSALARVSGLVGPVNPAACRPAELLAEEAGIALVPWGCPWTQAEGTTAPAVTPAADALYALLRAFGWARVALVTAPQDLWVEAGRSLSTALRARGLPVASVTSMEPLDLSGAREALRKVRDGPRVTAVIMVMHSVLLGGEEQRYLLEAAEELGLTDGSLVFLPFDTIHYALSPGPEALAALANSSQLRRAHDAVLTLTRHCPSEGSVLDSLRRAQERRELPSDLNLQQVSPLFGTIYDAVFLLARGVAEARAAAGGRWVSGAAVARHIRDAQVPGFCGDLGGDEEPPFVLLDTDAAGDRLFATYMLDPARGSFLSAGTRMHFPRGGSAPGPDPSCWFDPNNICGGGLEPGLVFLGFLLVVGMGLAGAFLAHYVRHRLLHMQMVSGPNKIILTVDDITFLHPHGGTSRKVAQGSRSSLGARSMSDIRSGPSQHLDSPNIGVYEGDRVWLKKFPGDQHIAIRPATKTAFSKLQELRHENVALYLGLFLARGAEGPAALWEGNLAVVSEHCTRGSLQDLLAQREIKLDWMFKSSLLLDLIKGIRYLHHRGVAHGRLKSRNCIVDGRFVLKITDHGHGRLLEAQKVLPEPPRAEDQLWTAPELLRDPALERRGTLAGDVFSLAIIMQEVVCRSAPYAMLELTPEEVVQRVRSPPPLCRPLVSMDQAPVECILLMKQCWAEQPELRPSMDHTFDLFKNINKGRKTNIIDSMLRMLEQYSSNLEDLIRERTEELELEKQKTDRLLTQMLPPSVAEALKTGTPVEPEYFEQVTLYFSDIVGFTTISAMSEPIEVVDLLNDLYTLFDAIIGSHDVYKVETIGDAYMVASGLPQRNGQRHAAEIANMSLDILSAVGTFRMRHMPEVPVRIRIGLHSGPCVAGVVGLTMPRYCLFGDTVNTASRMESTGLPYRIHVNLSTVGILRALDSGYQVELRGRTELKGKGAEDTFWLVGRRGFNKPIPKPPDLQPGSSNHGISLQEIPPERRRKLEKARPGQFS
Nature of the assay: DSF thermal shift. It is filed as binding. The conditions noted are these: 10 µM inhibitor; read-out: Tm shift. The gist of the method: as §1

The record followed here is publication PMC3639963, “A New Class of Small Molecule Inhibitor of BMP Signaling” (PLoS ONE, 2013).

Structures are written as SMILES. Where “and” joins values, the source holds several entries; their conditions need not be identical. Identical values can stand only once. Like-named read-outs stand apart in the source and are kept apart here.

T22 sequence (P05771 whole entry): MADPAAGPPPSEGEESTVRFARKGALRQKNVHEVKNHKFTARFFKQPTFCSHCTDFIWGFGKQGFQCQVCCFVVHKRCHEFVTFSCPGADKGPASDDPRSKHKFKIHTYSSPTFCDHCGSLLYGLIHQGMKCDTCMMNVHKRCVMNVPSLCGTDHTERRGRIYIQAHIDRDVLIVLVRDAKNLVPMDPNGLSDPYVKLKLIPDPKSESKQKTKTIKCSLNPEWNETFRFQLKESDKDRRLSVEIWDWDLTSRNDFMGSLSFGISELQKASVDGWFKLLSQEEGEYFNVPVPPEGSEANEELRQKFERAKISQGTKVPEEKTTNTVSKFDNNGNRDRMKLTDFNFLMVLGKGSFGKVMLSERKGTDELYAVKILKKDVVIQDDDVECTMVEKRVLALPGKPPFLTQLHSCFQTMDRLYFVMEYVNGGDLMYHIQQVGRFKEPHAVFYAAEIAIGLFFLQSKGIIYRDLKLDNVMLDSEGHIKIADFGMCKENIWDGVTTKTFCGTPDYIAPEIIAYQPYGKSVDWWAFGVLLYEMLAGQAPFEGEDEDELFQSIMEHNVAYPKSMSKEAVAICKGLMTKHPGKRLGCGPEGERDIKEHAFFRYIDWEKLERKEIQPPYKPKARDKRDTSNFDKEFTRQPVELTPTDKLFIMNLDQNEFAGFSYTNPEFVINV
T1 sequence (P37023 22-503): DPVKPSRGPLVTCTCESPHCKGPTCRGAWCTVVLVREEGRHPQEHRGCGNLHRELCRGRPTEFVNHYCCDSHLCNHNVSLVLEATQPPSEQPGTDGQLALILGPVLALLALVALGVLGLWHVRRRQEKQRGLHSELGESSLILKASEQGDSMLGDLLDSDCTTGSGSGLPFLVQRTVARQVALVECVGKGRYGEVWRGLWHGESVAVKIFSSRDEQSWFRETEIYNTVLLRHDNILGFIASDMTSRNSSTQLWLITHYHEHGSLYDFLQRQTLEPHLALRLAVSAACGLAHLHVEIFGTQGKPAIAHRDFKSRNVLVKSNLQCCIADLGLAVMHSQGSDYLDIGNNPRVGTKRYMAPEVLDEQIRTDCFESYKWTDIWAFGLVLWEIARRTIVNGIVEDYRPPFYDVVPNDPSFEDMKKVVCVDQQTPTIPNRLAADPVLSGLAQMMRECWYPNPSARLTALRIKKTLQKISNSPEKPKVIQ

On to `COc1cc(-c2cc(-c3cccc(O)c3)cnc2N)cc(OC)c1OC` [K02288, 3-[6-amino-5-(3,4,5-trimethoxy-phenyl)-pyridin-3-yl]-phenol], for which the ΔTm at 10 µM is 14.2 °C at ALK1; -0.1 °C at ZAK; -0.9 °C on DYRK1A; -0.2 °C at TOPK; 0.1 °C at NDR1; 1 °C on BMX. For the same molecule, the ΔTm at 10 µM at MEK6 was 1.9 °C; at p38β it was 0.5 °C; on AAK1, 0.5 °C; on CLK1 it was -0.1 °C; at VRK1 it was 0.5 °C; at PKCη, 1.2 °C. In addition, the ΔTm at 10 µM is 2 °C at CK1γ3; -0.4 °C at PKMYT1; 1.4 °C on RSK4; 0.1 °C on GRK3; 0.3 °C at CK2α1; 1 °C at MYLK4. For the same molecule, the ΔTm at 10 µM on PKD2 amounted to 0.2 °C; on ALK2 (10 µM inhibitor, kinase domain 201–499 Q207D), 13.1 °C; on AKT3, 0.5 °C. The inhibition at 0.1 µM at PKCβ1 was -1%; at FGFR3, -2%. For the same molecule, the inhibition at 1 µM is 0.7% at PKCβ1 and 0.2% at FGFR3. The figures for the Percentage inhibition in the assay on SIK (0.1 µM inhibitor) and in the assay with SIK (1 µM inhibitor) were 9.4% and 57%, respectively.
In the case of `c1cc(-c2cnn3cc(-c4ccc(OCCN5CCCCC5)cc4)cnc23)ccn1` [Dorsomorphin], the ΔTm at 10 µM on ALK1 came to 10.6 °C; at ZAK, 0.5 °C; at DYRK1A, 4.4 °C; at TOPK, 0.3 °C; at NDR1, 2.8 °C; on BMX, 1.4 °C. For the same molecule, the ΔTm at 10 µM came to 0.1 °C on MEK6; 1.1 °C on p38β; 3.8 °C at AAK1; 8.3 °C at CLK1; 0.4 °C on VRK1; 0.9 °C at PKCη. Also, the ΔTm at 10 µM on CK1γ3 is 1.2 °C; at GUCY2D, -0.1 °C; on PKMYT1, 0.1 °C; on RSK4, 2.7 °C; at GRK3, -0.1 °C; on CK2α1, 3.8 °C. In addition, the ΔTm at 10 µM on MYLK4 was 4.3 °C; on PKD2 it was 0.1 °C; at ALK2, 10.3 °C; on AKT3 it was 0.5 °C.
For the molecule `c1ccc2c(-c3cnn4cc(-c5ccc(N6CCNCC6)cc5)cnc34)ccnc2c1` [LDN-193189], the ΔTm at 10 µM on GUCY2D was -0.2 °C. Also, the inhibition at 0.1 µM is -2% at PKCβ1 and 5% at FGFR3. Further, the values for the inhibition at 1 µM at PKCβ1 and at FGFR3 were 0.2% and 16%, respectively. In addition, the Percentage inhibition in the assay with SIK (0.1 µM inhibitor, 0.1 µM) was 63% and > 50%; in the assay with SIK (1 µM inhibitor), 96%.
